Consider eight compounds from ChEMBL document CHEMBL5291721, “A preclinical secondary pharmacology resource illuminates target-adverse drug reaction associations of marketed drugs” (Nat Commun, 2023).

One may read the AC50 as the midpoint of the concentration-response curve, whichever way the signal moves. A higher AC50 goes with activity only at high concentration.

Experiment [1] concerns the target T1, Prostaglandin G/H synthase 1 (Rattus norvegicus, UniProt Q63921).
T1 sequence (Q63921 whole entry): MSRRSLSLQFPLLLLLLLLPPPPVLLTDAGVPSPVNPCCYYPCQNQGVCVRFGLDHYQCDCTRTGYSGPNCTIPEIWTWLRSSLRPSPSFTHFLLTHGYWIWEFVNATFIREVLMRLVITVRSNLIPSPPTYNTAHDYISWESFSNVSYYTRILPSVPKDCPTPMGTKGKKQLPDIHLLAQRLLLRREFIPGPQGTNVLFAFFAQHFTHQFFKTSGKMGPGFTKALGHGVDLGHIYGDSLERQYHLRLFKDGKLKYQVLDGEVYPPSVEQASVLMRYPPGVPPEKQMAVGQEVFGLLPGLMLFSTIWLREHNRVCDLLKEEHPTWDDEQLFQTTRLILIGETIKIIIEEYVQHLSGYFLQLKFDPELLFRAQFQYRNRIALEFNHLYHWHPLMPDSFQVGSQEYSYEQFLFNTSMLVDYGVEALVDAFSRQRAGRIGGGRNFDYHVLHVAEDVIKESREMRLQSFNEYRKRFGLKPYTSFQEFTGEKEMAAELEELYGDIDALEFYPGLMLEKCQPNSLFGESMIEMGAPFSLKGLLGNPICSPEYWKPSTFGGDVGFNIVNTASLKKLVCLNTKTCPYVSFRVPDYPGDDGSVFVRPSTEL
The class given is functional.

The target in experiment [2] is T2, 5-hydroxytryptamine receptor 3A (Homo sapiens, UniProt P46098).
T2 sequence (P46098 whole entry): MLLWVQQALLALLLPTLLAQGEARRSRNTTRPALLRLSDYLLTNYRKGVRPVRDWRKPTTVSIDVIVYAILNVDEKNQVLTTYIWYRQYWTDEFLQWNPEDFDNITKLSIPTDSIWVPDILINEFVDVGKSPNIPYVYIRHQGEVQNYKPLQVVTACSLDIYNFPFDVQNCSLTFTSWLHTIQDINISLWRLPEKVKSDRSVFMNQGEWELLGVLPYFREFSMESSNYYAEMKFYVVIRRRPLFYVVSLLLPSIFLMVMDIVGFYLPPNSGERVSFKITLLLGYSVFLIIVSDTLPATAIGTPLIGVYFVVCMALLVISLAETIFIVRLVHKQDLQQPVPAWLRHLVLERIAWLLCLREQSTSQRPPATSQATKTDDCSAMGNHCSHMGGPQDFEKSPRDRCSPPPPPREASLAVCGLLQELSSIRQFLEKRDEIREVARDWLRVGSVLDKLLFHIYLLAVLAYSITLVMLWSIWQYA
The experiment is classed as functional.

Experiment [3] concerns the target Sodium-dependent dopamine transporter (Homo sapiens, UniProt Q01959).
The target of experiment [4] is Kappa-type opioid receptor (Homo sapiens, UniProt P41145).
Chain of Kappa-type opioid receptor (P41145 whole entry): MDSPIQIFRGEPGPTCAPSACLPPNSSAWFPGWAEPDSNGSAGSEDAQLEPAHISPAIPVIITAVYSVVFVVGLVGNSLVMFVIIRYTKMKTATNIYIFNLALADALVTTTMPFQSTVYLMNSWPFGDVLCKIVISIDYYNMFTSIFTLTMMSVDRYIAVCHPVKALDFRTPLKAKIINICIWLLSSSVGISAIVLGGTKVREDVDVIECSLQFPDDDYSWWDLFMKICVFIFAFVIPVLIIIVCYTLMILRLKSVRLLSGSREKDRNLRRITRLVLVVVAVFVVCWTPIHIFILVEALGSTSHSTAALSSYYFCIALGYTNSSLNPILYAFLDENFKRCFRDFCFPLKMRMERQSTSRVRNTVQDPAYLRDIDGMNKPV
For a further experiment, the target named is Histamine H2 receptor (Homo sapiens, UniProt P25021). The class given is functional, cell-based.
Chain of Histamine H2 receptor (P25021 whole entry): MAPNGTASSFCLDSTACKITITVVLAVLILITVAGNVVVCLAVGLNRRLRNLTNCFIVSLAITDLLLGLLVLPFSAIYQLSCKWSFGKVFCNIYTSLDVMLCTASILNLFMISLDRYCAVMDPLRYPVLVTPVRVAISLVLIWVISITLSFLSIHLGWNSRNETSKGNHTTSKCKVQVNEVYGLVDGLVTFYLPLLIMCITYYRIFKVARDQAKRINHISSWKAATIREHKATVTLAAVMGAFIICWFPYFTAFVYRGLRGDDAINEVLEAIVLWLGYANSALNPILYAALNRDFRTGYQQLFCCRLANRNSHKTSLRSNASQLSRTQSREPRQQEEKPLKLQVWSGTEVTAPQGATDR
For experiment [5], the target named is 5-hydroxytryptamine receptor 2B (Homo sapiens, UniProt P41595). The experiment is classed as functional, cell-based.
Chain of 5-hydroxytryptamine receptor 2B (P41595 whole entry): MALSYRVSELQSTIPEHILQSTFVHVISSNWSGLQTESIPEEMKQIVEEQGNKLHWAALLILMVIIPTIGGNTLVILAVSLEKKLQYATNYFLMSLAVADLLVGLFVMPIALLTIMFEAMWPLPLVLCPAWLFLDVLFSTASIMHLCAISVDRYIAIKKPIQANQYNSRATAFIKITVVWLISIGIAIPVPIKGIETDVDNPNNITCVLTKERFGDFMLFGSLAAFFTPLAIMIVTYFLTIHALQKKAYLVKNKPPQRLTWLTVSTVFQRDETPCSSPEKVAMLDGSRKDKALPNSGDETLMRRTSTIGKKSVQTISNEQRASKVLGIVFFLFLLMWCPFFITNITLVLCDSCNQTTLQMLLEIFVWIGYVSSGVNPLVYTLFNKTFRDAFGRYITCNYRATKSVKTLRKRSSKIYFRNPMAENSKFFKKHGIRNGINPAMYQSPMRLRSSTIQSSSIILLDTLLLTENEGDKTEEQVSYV
The target in a further experiment is D(1A) dopamine receptor (Homo sapiens, UniProt P21728). The class given is functional, cell-based.
Chain of D(1A) dopamine receptor (P21728 whole entry): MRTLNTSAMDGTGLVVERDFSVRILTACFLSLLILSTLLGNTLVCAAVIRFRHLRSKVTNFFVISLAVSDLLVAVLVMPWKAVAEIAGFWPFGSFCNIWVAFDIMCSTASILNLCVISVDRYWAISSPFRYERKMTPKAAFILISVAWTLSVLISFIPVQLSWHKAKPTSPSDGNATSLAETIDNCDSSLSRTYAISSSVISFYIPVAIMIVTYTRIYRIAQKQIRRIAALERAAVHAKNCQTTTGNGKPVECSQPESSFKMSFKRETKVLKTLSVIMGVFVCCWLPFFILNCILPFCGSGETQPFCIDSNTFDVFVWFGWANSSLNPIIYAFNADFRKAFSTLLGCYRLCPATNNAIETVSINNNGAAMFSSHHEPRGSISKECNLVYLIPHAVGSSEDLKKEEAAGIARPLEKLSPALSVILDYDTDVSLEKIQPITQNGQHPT
Experiment [6] has as its target T3, Alpha-1A adrenergic receptor (Homo sapiens, UniProt P35348).
T3 sequence (P35348 whole entry): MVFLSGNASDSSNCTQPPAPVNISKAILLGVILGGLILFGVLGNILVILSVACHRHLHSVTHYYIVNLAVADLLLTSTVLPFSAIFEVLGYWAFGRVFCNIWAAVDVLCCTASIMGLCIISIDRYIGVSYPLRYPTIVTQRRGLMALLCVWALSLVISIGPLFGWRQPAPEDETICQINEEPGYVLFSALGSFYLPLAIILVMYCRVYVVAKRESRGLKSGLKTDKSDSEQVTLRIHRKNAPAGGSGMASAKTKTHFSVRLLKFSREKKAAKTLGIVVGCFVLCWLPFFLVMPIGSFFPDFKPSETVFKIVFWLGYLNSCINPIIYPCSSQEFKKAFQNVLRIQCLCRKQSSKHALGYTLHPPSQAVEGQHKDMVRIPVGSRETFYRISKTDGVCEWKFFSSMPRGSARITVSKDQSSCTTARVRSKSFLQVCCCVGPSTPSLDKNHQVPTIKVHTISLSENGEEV
The experiment is classed as functional, cell-based.

Experiment [7] concerns the target Glutamate receptor ionotropic, NMDA 1 (Rattus norvegicus, UniProt P35439).
Experiment [8] has as its target Gamma-aminobutyric acid receptor subunit alpha-1 (Rattus norvegicus, UniProt P62813). The class given is functional.
Experiment [9] addresses T4, 5-hydroxytryptamine receptor 1A (Homo sapiens, UniProt P08908).
T4 sequence (P08908 whole entry): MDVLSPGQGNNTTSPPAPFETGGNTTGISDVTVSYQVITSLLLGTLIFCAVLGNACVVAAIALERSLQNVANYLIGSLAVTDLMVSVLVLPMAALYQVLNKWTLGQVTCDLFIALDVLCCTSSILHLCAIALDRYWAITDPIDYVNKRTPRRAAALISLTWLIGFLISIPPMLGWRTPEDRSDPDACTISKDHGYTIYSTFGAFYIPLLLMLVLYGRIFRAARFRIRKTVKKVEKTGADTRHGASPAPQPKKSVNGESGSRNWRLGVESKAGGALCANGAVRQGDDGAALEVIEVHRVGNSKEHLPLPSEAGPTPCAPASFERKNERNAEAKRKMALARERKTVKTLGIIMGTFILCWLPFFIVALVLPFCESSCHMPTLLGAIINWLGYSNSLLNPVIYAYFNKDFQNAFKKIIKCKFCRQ
The class given is functional, cell-based.

The target of experiment [10] is T5, Muscarinic acetylcholine receptor M1 (Homo sapiens, UniProt P11229).
T5 sequence (P11229 whole entry): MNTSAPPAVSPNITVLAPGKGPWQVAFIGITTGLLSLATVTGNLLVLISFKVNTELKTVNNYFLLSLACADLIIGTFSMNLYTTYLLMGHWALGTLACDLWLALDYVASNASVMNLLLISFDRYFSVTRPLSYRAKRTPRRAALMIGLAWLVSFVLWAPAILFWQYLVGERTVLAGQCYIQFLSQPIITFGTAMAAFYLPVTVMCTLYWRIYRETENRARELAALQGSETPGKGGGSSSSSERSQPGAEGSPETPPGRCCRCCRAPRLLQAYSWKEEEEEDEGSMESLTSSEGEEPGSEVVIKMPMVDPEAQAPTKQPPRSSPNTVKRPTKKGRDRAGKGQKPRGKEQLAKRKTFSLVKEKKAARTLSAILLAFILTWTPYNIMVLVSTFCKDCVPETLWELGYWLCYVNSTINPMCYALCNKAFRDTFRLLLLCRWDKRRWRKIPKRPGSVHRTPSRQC
The experiment is classed as functional.
Further: assay procedure not described here.

Chain of Gamma-aminobutyric acid receptor subunit alpha-1 (P62813 whole entry): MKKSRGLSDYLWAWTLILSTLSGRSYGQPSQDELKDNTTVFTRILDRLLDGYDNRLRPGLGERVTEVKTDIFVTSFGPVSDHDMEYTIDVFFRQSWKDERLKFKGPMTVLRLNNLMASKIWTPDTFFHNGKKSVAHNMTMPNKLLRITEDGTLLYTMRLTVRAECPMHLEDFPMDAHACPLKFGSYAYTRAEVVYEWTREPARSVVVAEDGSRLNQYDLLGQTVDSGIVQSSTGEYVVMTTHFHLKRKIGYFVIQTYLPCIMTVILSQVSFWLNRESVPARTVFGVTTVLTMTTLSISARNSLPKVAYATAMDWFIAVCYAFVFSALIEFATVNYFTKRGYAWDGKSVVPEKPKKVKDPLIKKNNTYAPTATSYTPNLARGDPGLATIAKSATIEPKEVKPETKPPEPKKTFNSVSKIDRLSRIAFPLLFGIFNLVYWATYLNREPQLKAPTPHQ
Chain of Sodium-dependent dopamine transporter (Q01959 whole entry): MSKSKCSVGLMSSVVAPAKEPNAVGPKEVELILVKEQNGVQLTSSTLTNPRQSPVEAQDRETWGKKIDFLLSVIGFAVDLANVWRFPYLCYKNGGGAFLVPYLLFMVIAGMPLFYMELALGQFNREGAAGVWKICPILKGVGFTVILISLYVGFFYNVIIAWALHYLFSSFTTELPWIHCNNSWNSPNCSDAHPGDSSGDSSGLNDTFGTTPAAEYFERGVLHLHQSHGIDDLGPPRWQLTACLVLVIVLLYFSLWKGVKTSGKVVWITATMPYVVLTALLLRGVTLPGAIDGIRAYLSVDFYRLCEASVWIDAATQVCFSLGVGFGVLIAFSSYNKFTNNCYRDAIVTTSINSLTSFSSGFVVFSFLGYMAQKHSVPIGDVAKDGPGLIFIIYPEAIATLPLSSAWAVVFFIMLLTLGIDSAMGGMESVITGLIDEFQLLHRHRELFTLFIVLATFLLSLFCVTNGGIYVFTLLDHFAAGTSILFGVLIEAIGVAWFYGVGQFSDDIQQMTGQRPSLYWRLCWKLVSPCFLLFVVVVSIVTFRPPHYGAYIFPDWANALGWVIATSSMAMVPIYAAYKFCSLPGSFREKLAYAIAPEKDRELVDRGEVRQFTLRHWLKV

For the compound `CN(C/C=C/c1ccccc1)Cc1cccc2ccccc12` [NAFTIFINE], the AC50 in experiment [1] is 23.1 µM; in [2], greater than 30 µM; in experiment [3], 17.3 µM; in [4] it was 10.6 µM; on Histamine H2 receptor, greater than 10 µM; in [5] it was greater than 10 µM. Moreover, the AC50 at D(1A) dopamine receptor was greater than 10 µM; in experiment [6], greater than 30 µM; in experiment [7], greater than 10 µM; in experiment [8], greater than 10 µM; in experiment [9], greater than 10 µM; in [10], greater than 10 µM.
`O=C(Cn1ccnc1[N+](=O)[O-])NCc1ccccc1` [BENZNIDAZOLE]: the AC50 is greater than 30 µM in [1]; greater than 30 µM in [2]; greater than 30 µM in [3]; 21 µM in experiment [4]; greater than 30 µM on Histamine H2 receptor; greater than 30 µM in experiment [5]. The concentration at half-maximal activity (AC50) (at D(1A) dopamine receptor; in [6]; in [7]; in experiment [8]; in [9]; in [10]) was greater than 30 µM each time.
For the compound `CC(C)(N)Cc1ccc(Cl)cc1` [CHLORPHENTERMINE], the AC50 in experiment [1] was greater than 30 µM; in experiment [2], greater than 30 µM; in [3], 7.59 µM; in experiment [4], greater than 10 µM; on Histamine H2 receptor it was greater than 10 µM; in [5], 25 µM. In addition, the AC50 is greater than 10 µM at D(1A) dopamine receptor; greater than 30 µM in experiment [6]; greater than 10 µM in experiment [7]; greater than 10 µM in [8]; greater than 10 µM in experiment [9]; greater than 10 µM in [10].
Turning to `CN1C(=O)N(C)C2C1N(C)C(=O)N2C` (stereo not drawn) [MEBICAR], the AC50 (in experiment [2]; in experiment [4]; on Histamine H2 receptor; in experiment [5]; at D(1A) dopamine receptor; in experiment [6]) was greater than 30 µM throughout. In addition, the AC50 in [7], in experiment [8], in experiment [9] and in experiment [10] was greater than 30 µM in each case.
`CC(C(O)c1ccc(O)cc1)N1CCC(Cc2ccccc2)CC1` (stereo not drawn) [IFENPRODIL]: the AC50 was greater than 30 µM in experiment [1]; greater than 30 µM in experiment [2]; 1.2 µM in experiment [3]; 1 µM in experiment [4]; greater than 30 µM on Histamine H2 receptor; 2.3 µM in experiment [5]. In addition, the AC50 is greater than 30 µM on D(1A) dopamine receptor; 0.45 µM in [6]; greater than 30 µM in experiment [8]; 1.3 µM in [9]; greater than 30 µM in experiment [10].
As for `C[N+](C)(C)CC(=O)O` [BETAINE], the AC50 (in [1]; in experiment [2]; in experiment [3]; at Histamine H2 receptor; in experiment [5]; on D(1A) dopamine receptor) was greater than 30 µM each time. Besides, the AC50 in experiment [6], in experiment [7], in [8], in experiment [9] and in [10] was greater than 30 µM each time.
Turning to `N/N=c1/cc2c(n[nH]1)CCN(C(=O)c1ccccc1)C2` [ENDRALAZINE], the AC50 (in experiment [2]; in [4]; at Histamine H2 receptor; in [5]; at D(1A) dopamine receptor; in experiment [6]) was greater than 30 µM throughout. In addition, the AC50 in experiment [7], in experiment [8], in experiment [9] and in experiment [10] was greater than 30 µM each time.
`CO/N=C(\C(=O)N[C@@H]1C(=O)N2C(C(=O)OCOC(=O)C(C)(C)C)=C(C)CS[C@H]12)c1csc(N)n1`: the AC50 (in experiment [2]; in experiment [4]; at Histamine H2 receptor; in [5]; at D(1A) dopamine receptor; in [6]) was greater than 30 µM throughout. Also, the AC50 in [7], in experiment [8], in experiment [9] and in experiment [10] was greater than 30 µM each time.
